From patent US20100204224A1, “AZACYCLIC COMPOUNDS AS INHIBITORS OF SENSORY NEURONE SPECIFIC SODIUM CHANNELS” (priority 2005, published 2010)
Counter-ions that a name gives are not always drawn.

molecular target: T1, human Nav1.8 (hNav1.8) ion channel (Homo sapiens, UniProt Q9Y5Y9); assay: Inhibition of human Nav1.8 stably expressed in SH-SY-5Y cells (membrane potential dye fluorescence assay); assay type: cell-based; details: SH-SY-5Y hNav1.8 cells; FLIPR membrane potential dye; 10 μM pyrethroid, 250 nM TTX; test concentration range 100 μM-0.05 μM; read-out: hNav1.8 IC50
T1 construct: expressed in transfected cells
T1 sequence (Q9Y5Y9 whole entry): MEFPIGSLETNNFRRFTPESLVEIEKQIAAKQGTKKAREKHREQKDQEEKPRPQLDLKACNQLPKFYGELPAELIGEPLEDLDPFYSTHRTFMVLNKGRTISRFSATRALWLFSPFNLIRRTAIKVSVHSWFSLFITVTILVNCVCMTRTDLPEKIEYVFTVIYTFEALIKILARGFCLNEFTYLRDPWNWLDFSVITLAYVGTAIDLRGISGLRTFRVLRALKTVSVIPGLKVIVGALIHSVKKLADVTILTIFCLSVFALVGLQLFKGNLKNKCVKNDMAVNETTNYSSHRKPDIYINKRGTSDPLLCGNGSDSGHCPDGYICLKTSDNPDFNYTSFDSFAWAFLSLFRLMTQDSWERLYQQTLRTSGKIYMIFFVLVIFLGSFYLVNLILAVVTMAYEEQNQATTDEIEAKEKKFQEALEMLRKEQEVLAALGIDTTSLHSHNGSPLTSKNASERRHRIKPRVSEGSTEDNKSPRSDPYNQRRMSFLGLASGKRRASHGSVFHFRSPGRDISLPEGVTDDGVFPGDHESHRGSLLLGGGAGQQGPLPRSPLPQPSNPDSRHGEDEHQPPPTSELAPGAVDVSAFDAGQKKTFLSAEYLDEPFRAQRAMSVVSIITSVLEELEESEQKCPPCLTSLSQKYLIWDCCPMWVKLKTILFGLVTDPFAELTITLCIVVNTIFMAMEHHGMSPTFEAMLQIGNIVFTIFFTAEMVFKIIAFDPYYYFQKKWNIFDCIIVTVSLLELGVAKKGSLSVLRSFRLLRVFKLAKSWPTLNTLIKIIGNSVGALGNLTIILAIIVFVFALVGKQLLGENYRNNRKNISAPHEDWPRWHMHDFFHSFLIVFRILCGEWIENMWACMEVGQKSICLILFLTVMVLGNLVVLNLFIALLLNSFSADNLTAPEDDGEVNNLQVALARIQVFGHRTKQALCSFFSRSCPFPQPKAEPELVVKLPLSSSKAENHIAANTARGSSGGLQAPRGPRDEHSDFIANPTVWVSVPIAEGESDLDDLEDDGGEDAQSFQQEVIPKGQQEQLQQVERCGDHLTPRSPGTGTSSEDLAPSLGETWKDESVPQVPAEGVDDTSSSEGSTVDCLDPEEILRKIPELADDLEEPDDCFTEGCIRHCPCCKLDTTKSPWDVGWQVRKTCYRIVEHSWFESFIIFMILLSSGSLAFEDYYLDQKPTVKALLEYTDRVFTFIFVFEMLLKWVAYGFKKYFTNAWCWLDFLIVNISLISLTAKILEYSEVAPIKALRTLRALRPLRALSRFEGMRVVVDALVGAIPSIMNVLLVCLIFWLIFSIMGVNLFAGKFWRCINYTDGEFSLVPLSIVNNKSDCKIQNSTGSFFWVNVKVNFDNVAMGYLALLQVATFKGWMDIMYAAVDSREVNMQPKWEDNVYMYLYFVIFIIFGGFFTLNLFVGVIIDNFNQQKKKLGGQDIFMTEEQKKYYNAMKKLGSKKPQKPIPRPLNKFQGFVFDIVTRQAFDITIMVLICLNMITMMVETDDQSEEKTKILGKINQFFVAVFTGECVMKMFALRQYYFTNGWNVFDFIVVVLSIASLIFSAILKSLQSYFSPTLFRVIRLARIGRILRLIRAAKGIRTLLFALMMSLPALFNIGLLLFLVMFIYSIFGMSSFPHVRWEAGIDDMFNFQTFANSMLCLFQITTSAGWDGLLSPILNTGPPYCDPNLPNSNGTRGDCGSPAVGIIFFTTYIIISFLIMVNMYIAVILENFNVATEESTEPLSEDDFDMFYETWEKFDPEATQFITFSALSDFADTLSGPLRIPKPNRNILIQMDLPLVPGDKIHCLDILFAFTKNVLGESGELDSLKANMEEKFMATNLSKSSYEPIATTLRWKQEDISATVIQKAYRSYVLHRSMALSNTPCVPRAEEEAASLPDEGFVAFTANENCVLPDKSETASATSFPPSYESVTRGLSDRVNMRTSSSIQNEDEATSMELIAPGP
Experimental: Inhibition of Human Nav1.8 stably expressed in SH-SY-5Y Cells
A SH-SY-5Y neuroblastoma cell line stably expressing the human Nav1.8 (hNav1.8) ion channel was constructed. This cell line has been used to develop a medium to high throughput assay for determining the ability of test compounds to inhibit membrane depolarisation mediated via the hNav1.8 channel.
SH-SY-5Y hNav1.8 are grown in adherent monolayer culture using 50:50 Ham's F-12/EMEM tissue culture medium supplemented with 15% (v/v) foetal bovine serum; 2 mM L-glutamine, 1% NEAR and 600 μg·ml^−1 Geneticin sulphate. Cells are removed from the tissue culture flask using trypsin/EDTA and re-plated into black walled, clear bottom 96-well assay plates at 50,000 cells·well^−1 24 hours prior to assay.
On the day of assay the cell assay plates are washed to remove cell culture medium using a sodium free assay buffer (145 mM tetramethyl ammonium chloride; 2 mM calcium chloride; 0.8 mM magnesium chloride hexahydrate; 10 mM HEPES; 10 mM glucose; 5 mM potassium chloride, pH 7.4). Fluorescent membrane potential dye solution (FLIPR™ membrane potential dye, Molecular Devices Corporation), containing 10 μM of a pyrethroid to prevent channel inactivation and 250 nM tetrodotoxin (TTX) to reduce interference from TTX-sensitive sodium channels present in the cell line. Test compound, initially dissolved in dimethyl sulfoxide but further diluted in sodium free buffer, is added to achieve the final test concentration range of 100 μM-0.05 μM.
Cell plates are incubated for 30 minutes at room temperature to allow equilibration of dye and test compound. Plates are then transferred to a fluorescence plate reader for fluorescence measurement using an excitation wavelength of 530 nm whilst measuring fluorescence emission at 565 nm. Baseline fluorescence levels are first determined before the addition of a sodium containing buffer (220 mM sodium chloride; 2 mM calcium chloride; 0.8 mM magnesium chloride hexahydrate; 10 mM HEPES; 10 mM glucose; 5 mM potassium chloride. pH 7.4) to cause membrane depolarisation in those cells where channel block has not been effected (final sodium concentration=72.5 mM). Membrane depolarisation is registered by an increase in fluorescence emission at 565 nm.
The change in fluorescence seen in each test well upon the addition of sodium containing buffer is calculated relative to the baseline fluorescence for that well. This figure is then used for calculating the IC50 for each test compound.

Row | Compound | IC50 [µM]
1 | CC(c1ccccn1)N1CC2CC1CN2C(=O)c1ccc(Oc2ccc(F)cc2)cc1 (stereo not shown) [Example 181, [4-(4-Fluoro-phenoxy)-phenyl]-[5-(1-pyridin-2-yl-ethyl)-2,5-diaza-bicyclo[2.2.1]hept-2-yl]-methanone] | 9.93
2 | COc1ccccc1CC(C)N1CC2CC1CN2C(=O)Nc1ccc(C(F)(F)F)cc1 (stereo not shown) [Example 86, 5-[2-(2-Methoxy-phenyl)-1-methyl-ethyl]-2,5-diaza-bicyclo[2.2.1]heptane-2-carboxylic acid (4-trifluoromethyl-phenyl)-amide] | 0.67
3 | CC(C(C#N)c1ccccc1)N1CC2CC1CN2C(=O)Nc1ccc(C(F)(F)F)cc1 (stereo not shown) [Example 81, 5-(2-Cyano-1-methyl-2-phenyl-ethyl)-2,5-diaza-bicyclo[2.2.1]heptane-2-carboxylic acid (4-trifluoromethyl-phenyl)-amide] | 26.2
4 | Cc1ccsc1CN1CC2CC1CN2C(=O)Nc1ccc(Oc2ccccc2)nc1 (stereo not shown) [Example 2, 5-(3-Methyl-thiophen-2-ylmethyl)-2,5-diaza-bicyclo[2.2.1]heptane-2-carboxylic acid (6-phenoxy-pyridin-3-yl)-amide] | 3.74
5 | CC(c1ccccc1Cl)N1CC2CC1CN2C(=O)Nc1ccc(Oc2ccc(F)cc2)c(F)c1 (stereo not shown) [Example 110, 5-[1-(2-Chloro-phenyl)-ethyl]-2,5-diaza-bicyclo[2.2.1]heptane-2-carboxylic acid [3-fluoro-4-(4-fluoro-phenoxy)-phenyl]-amide] | 0.21
6 | CC(c1ccccc1Cl)N1CC2CC1CN2C(=O)c1ccc(Oc2cccc(F)c2)cc1 (stereo not shown) [Example 169, {5-[1-(2-Chloro-phenyl)-ethyl]-2,5-diaza-bicyclo[2.2.1]hept-2-yl}-[4-(3-fluoro-phenoxy)-phenyl]-methanone] | 0.84
7 | Cc1ccccc1C(C)N1CC2CC1CN2C(=O)Nc1ccc(Oc2ccccc2)cc1 (stereo not shown) [Example 4, 5-(1-o-Tolyl-ethyl)-2,5-diaza-bicyclo[2.2.1]heptane-2-carboxylic acid (4-phenoxy-phenyl)-amide] | 0.32
8 | Cc1ccccc1C(C)N1CC2CC1CN2C(=O)Nc1ccc(OCC2CCCO2)cc1 (stereo not shown) [Example 26, 5-(1-o-Tolyl-ethyl)-2,5-diaza-bicyclo[2.2.1]heptane-2-carboxylic acid [4-(tetrahydro-furan-2-ylmethoxy)-phenyl]-amide] | 16.7
9 | CC(c1c(F)cccc1F)N1CC2CC1CN2C(=O)Nc1ccc(Oc2ccccc2)cc1 (stereo not shown) [Example 9, 5-[1-(2,6-Difluoro-phenyl)-ethyl]-2,5-diaza-bicyclo[2.2.1]heptane-2-carboxylic acid (4-phenoxy-phenyl)-amide] | 0.87
10 | Cc1cc(F)ccc1C(C)N1CC2CC1CN2C(=O)Nc1ccc(C(=O)c2ccccc2)cc1 (stereo not shown) [Example 72, 5-[1-(4-Fluoro-2-methyl-phenyl)-ethyl]-2,5-diaza-bicyclo[2.2.1]heptane-2-carboxylic acid (4-benzoyl-phenyl)-amide] | 2.26
11 | C=CCOC(=O)NCCOc1ccc(NC(=O)N2CC3CC2CN3C(C)c2ccccc2C)cc1 (stereo not shown) [Example 28, [2-(4-{[5-(1-o-Tolyl-ethyl)-2,5-diaza-bicyclo[2.2.1]heptane-2-carbonyl]-amino}-phenoxy)-ethyl]-carbamic acid allyl ester] | 4.89
12 | CC(c1ccccn1)N1CC2CC1CN2C(=O)c1ccc(Oc2cccc(C#N)c2)cc1 (stereo not shown) [Example 180, 3-{4-[5-(1-Pyridin-2-yl-ethyl)-2,5-diaza-bicyclo[2.2.1]heptane-2-carbonyl]-phenoxy}-benzonitrile] | 4.65
13 | CC(c1ccccc1Cl)N1CC2CC1CN2C(=O)Nc1ccc(Oc2ccc(F)cc2)cc1 (single isomer, unassigned) [Example 76, 5-[1-(2-Chloro-phenyl)-ethyl]-2,5-diaza-bicyclo[2.2.1]heptane-2-carboxylic acid [4-(4-fluoro-phenoxy)-phenyl]-amide] | 0.27
14 | O=C(Nc1ccc(Oc2ccc(F)cc2)cc1)N1CCC2(CCN(Cc3ccccc3)C2)C1 (stereo not shown) [Example 103, 7-Benzyl-2,7-diaza-spiro[4.4]nonane-2-carboxylic acid [4-(4-fluoro-phenoxy)-phenyl]-amide] | 0.39
15 | O=C(Nc1ccc(Oc2ccc(F)cc2)cc1)N1CC2CC1CN2C1CCc2ccccc2C1 (stereo not shown) [Example 97, 5-(1,2,3,4-Tetrahydro-naphthalen-2-yl)-2,5-diaza-bicyclo[2.2.1]heptane-2-carboxylic acid [4-(4-fluoro-phenoxy)-phenyl]-amide] | 0.31
16 | CC(Cc1ccc(F)cc1)N1CC2CC1CN2C(=O)Nc1ccc(C(F)(F)F)cc1 (stereo not shown) [Example 80, 5-[2-(4-Fluoro-phenyl)-1-methyl-ethyl]-2,5-diaza-bicyclo[2.2.1]heptane-2-carboxylic acid (4-trifluoromethyl-phenyl)-amide] | 0.49
17 | CC(c1ccccc1Cl)N1CC2CC1CN2C(=O)c1ccc(Oc2ccc(F)cc2)c(F)c1 (single isomer, unassigned) [Example 177, {5-[1-(2-Chloro-phenyl)-ethyl]-2,5-diaza-bicyclo[2.2.1]hept-2-yl}-[3-fluoro-4-(4-fluoro-phenoxy)-phenyl]-methanone] | 0.74
18 | CC(c1c(F)cccc1Cl)N1CC2CC1CN2C(=O)c1ccc(Oc2ccc(F)cc2)cc1 (stereo not shown) [Example 167, {5-[1-(2-Chloro-6-fluoro-phenyl)-ethyl]-2,5-diaza-bicyclo[2.2.1]hept-2-yl}-[4-(4-fluoro-phenoxy)-phenyl]-methanone] | 2.22
19 | O=C(NCc1ccc(Oc2ccc(F)cc2)cc1)N1CC2CC1CN2C1Cc2ccc(F)cc2C1 (stereo not shown) [Example 146, 5-(5-Fluoro-indan-2-yl)-2,5-diaza-bicyclo[2.2.1]heptane-2-carboxylic acid 4-(4-fluoro-phenoxy)-benzylamide] | 1.28
20 | Cc1ccccc1C(C)N1CC2CC1CN2C(=O)Nc1ccc(Oc2ccccc2)cc1 (stereo not shown) [Example 32, 5-(1-o-Tolyl-ethyl)-2,5-diaza-bicyclo[2.2.1]heptane-2-carboxylic acid (4-phenoxy-phenyl)-amide] | 0.71
21 | Cc1ccsc1C(C)N1CC2CC1CN2C(=O)Nc1ccc(Oc2ccccc2)cc1 (stereo not shown) [Example 14, 5-[1-(3-Methyl-thiophen-2-yl)-ethyl]-2,5-diaza-bicyclo[2.2.1]heptane-2-carboxylic acid (4-phenoxy-phenyl)-amide] | 0.9
22 | CC(c1ccc(F)cc1)N1CC2CC1CN2C(=O)Nc1ccc(Oc2ccccc2)cc1 (stereo not shown) [Example 51, 5-[1-(4-Fluoro-phenyl)-ethyl]-2,5-diaza-bicyclo[2.2.1]heptane-2-carboxylic acid (4-phenoxy-phenyl)-amide] | 0.41
23 | COCCCOc1ccc(NC(=O)N2CC3CC2CN3C(C)c2ccccc2C)cc1 (stereo not shown) [Example 27, 5-(1-o-Tolyl-ethyl)-2,5-diaza-bicyclo[2.2.1]heptane-2-carboxylic acid [4-(3-methoxy-propoxy)-phenyl]-amide] | 8.48
24 | CC(c1ccccc1Cl)N1CC2CC1CN2C(=O)c1ccc(Oc2ccc(F)cc2)c(F)c1 (single isomer, unassigned) [Example 176, {5-[1-(2-Chloro-phenyl)-ethyl]-2,5-diaza-bicyclo[2.2.1]hept-2-yl}-[3-fluoro-4-(4-fluoro-phenoxy)-phenyl]-methanone] | 0.43
25 | CC(c1ccccc1Cl)N1CC2CC1CN2C(=O)c1ccc(Oc2ccc(F)cc2)c(F)c1 (stereo not shown) [Example 179, {5-[1-(2-Chloro-phenyl)-ethyl]-2,5-diaza-bicyclo[2.2.1]hept-2-yl}-[3-fluoro-4-(4-fluoro-phenoxy)-phenyl]-methanone methanesulfonate salt] | 1.34
26 | O=C(Nc1ccc(Oc2ccccc2)cc1)N1CC2CC1CN2C1Cc2ccccc2C1 (stereo not shown) [Example 105, 5-Indan-2-yl-2,5-diaza-bicyclo[2.2.1]heptane-2-carboxylic acid (4-phenoxy-phenyl)-amide] | 0.2

same assay, conditions: hNav1.8 IC50, SH-SY-5Y hNav1.8 cells; FLIPR membrane potential dye; 10 μM pyrethroid, 250 nM TTX; test concentration range 100 μM-0.05 μM

Row | Compound | IC50 [µM]
27 | Cc1ccccc1C(C)N1CC2CC1CN2C(=O)Nc1ccc(Oc2ccc(F)cc2)cc1 (stereo not shown) [Example 78, 5-(1-o-Tolyl-ethyl)-2,5-diaza-bicyclo[2.2.1]heptane-2-carboxylic acid [4-(4-fluoro-phenoxy)-phenyl]-amide fumarate salt] | 0.23
28 | CC(c1ccc(F)cc1Cl)N1CC2CC1CN2C(=O)Cc1ccc(Oc2ccc(F)cc2)cc1 (single isomer, unassigned) [Example 161, 1-{5-[1-(2-Chloro-4-fluoro-phenyl)-ethyl]-2,5-diaza-bicyclo[2.2.1]hept-2-yl}-2-[4-(4-fluoro-phenoxy)-phenyl]-ethanone] | 4.75
